This note sets out measurements from patent publication US10246446B2, “Blockers of the growth hormone receptor in disease prevention and treatment” (UNIVERSITY OF SOUTHERN CALIFORNIA, priority 2015, dated 2019).

Common to all, as to format: cell-based
Assay [1] addresses T1, human GHR (Homo sapiens, UniProt P10912).
T1 construct: expressed in transfected cells; HEK293 according to the assay procedure
T1 sequence (P10912 19-638): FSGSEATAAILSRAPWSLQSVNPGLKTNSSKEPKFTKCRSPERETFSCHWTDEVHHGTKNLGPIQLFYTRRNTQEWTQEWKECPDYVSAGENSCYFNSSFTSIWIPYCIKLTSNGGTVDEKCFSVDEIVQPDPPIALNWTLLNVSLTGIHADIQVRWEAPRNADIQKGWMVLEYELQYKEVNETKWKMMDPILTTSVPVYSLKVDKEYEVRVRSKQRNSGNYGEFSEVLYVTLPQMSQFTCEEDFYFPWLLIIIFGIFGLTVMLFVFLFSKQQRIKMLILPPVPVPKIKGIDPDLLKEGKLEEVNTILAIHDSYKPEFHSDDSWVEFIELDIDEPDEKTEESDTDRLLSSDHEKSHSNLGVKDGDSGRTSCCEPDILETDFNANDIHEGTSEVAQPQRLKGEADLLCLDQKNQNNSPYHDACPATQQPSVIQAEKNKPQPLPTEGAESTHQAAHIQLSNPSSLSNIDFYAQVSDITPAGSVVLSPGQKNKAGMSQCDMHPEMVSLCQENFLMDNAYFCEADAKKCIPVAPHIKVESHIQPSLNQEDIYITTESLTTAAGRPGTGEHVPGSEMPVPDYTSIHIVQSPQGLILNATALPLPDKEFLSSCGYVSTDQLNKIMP
Briefly: c-fos reporter luciferase assay, GH-stimulated cells. Conditions: for GH induced increase in c-fos reporter activity: FIG. 5A; for c-fos reporter activity, % of untreated controls: cells serum starved, incubated with test compound (10 μM), treated with GH, normalized to renilla luciferase. The protocol:
FIG. 5A. Lead compounds (#34, 37, 38) identified by luciferase reporter assays. Mouse L cells expressing human GHR were transfected with c-fos or SOCS2 reporter luciferase plasmids. Cells were serum starved, incubated with test compounds (#34, 37, 38) and then treated with GH. Data are normalized to co-transfected CMV-driven renilla luciferase and expressed as relative light units (RLU). (A) c-fos reporter luciferase activity.
(§1) In order to perform high throughput screening (HTS) for inhibitors of GHR, HEK293 cell lines permanently transfected were established with a luciferase reporter driven by either c-fos or SOCS2 promoter (FIG. 7).
(§2) The SOCS (Suppressor of Cytokine Signaling) proteins are induced by GH and act as negative regulators of cytokine signaling pathways. […] Luciferase reporter constructs where the luciferase gene is under the control of promoters of either SOCS2 or c-fos have been stably transfected into human embryonic kidney, HEK293 cells. Cells were serum starved (0.5% FBS) for 24 hours to prevent interference by other growth factors and then treated with 5 or 10 nM hGH (established in dose response studies) and 10 μM of each test compound for 24 hours. This is followed by lysis and analysis of luciferase activity using the luciferase reporter assay (Promega). Each compound is tested in triplicate in a 96 well plate format.

For assay [2], the target named is T1, human GHR. The assay can be described thus: SOCS2 reporter luciferase assay, GH-stimulated cells. Particulars: for GH induced increase in SOCS2 reporter activity: FIG. 5B; for SOCS2 reporter activity, % of untreated controls: cells serum starved, incubated with test compound (10 μM), treated with GH, normalized to renilla luciferase. The protocol:
FIG. 5B. Lead compounds (#34, 37, 38) identified by luciferase reporter assays. Mouse L cells expressing human GHR were transfected with c-fos or SOCS2 reporter luciferase plasmids. Cells were serum starved, then incubated with test compounds (#34, 37, 38) before GH treatment. Data were normalized to co-transfected CMV-driven renilla luciferase and expressed as relative light units (RLU). (B) SOCS2 reporter luciferase activity.
FIG. 7. High throughput screening (HTS) platform for the identification of GHR inhibitors. Mouse L cells expressing human GHR were transfected with SOCS2 reporter luciferase plasmids. Cells were serum starved, pre-treated with test compounds (numbered as shown) and then GH. Data are normalized to CMV renilla luciferase and expressed as relative light units (RLU).
as §1, §2

For assay [3], the system named is human GHR. The assay can be described thus: STAT5 phosphorylation assay (western blot), small molecules. Particulars: mouse L cells expressing human GHR; compound 30 min prior to 5 nM hGH; FIG. 6. How it is done: FIG. 6. […] (A) Mouse L cells were incubated in 0.5% serum for 24 hours. Cells were treated with compounds 34, 37 or 38 for 30 min prior to 5 nM hGH treatment. The growth hormone antagonist (GHA) was used as a positive control.
The JAK/STAT signaling pathway is the principal signaling mechanism for a variety of growth factors and cytokines. In the growth hormone signaling pathway, dimerization of the GHR in response to GH binding leads to the activation of JAK by transphosphorylation. Activated JAK phosphorylates STAT5, which can then enter the nucleus and activate transcription of target genes. Inhibition of STAT5 phosphorylation will be used to analyze GHR antagonistic properties of the test compounds.
Mouse L fibroblasts engineered to express […] were obtained from Dr. John Kopchick. Serum starved L cells (0.5% FBS for 24 hours) were pre-treated for 30 minutes with 10 μM of each compound identified as a hit from the luciferase assays. Following this, cells were treated with 5 or 10 nM hGH for 10 minutes. Cells were collected and processed for western blotting with phospho-STAT5 and total STAT5 antibodies (Cell Signaling). The GHR antagonist, G120K is used as a positive control. Band intensity was analyzed using ImageJ and STAT5 phosphorylation normalized to total STAT5 levels. Compounds that inhibited STAT5 phosphorylation were selected for further drug optimization.

As to `O=C(Nc1cccc(S(=O)(=O)N2CCCCCC2)c1)c1ccco1` [Compound 34], on human GHR [1], the “GH induced increase in c-fos reporter activity” value is “inhibited” and the “c-fos reporter activity, % of untreated controls” value stood at 57%. On human GHR [2], the “GH induced increase in SOCS2 reporter activity” value is “inhibited” and the “SOCS2 reporter activity, % of untreated controls” value turned out to be 76%. Also, in the assay on human GHR [3], the “GH induced phosphorylation of STAT5” value is recorded as “able to inhibit phosphorylation of STAT5”.

As to `CNS(=O)(=O)c1cc(NC(=O)c2ccc(CSc3ccccc3)o2)ccc1C` [Compound 37], at human GHR [1], the “GH induced increase in c-fos reporter activity” value was “inhibited” and the “c-fos reporter activity, % of untreated controls” value came to 27%. Also, at human GHR [2], the “GH induced increase in SOCS2 reporter activity” value is recorded as “inhibited” and the “SOCS2 reporter activity, % of untreated controls” value was determined as 61%. Moreover, in the assay on human GHR [3], the “GH induced phosphorylation of STAT5” value is listed as “able to inhibit phosphorylation of STAT5”.
